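How tested: cells in 96-well plates exposed to compound for 48 hours at five concentrations. At the GI50, growth is halved.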 Activity calls are given as the source filed them. Rule as the data show it: active = GI50 up to about 1.1 µM and inactive = higher.
Key:
Experiment in all cases: inhibition of tumour cell growth, NCI panel, 48 h
A498 = test system: A498
BT-549 = test system: BT-549
DU-145 = test system: DU-145
HCT-116 = test system: HCT-116
HCT-15 = test system: HCT-15
IGROV-1 = test system: IGROV-1
K562 = test system: K562
LOX IMVI = test system: LOX IMVI
MDA-N = test system: MDA-N
MOLT-4 = test system: MOLT-4
Malme-3M = test system: Malme-3M
NCI-H226 = test system: NCI-H226
NCI-H23 = test system: NCI-H23
NCI-H460 = test system: NCI-H460
OVCAR-3 = test system: OVCAR-3
OVCAR-5 = test system: OVCAR-5
PC-3 = test system: PC-3
U-251 = test system: U-251
RXF 393 = test system: RXF 393
SK-MEL-2 = test system: SK-MEL-2

Row | Compound | GI50 (A498) | GI50 (BT-549) | GI50 (DU-145) | GI50 (HCT-116) | GI50 (HCT-15) [µM] | GI50 (IGROV-1) | GI50 (K562) | GI50 (LOX IMVI) | GI50 (MDA-N) | GI50 (MOLT-4) | GI50 (Malme-3M) | GI50 (NCI-H226) | GI50 (NCI-H23) | GI50 (NCI-H460) | GI50 (OVCAR-3) | GI50 (OVCAR-5) | GI50 (PC-3) | GI50 (U-251) | GI50 (RXF 393) | GI50 (SK-MEL-2)
1 | N#Cc1c(Cl)c(C=O)c(=O)n2c1[nH]c1ccccc12 | 31.7 µM (inactive) | 36.1 µM (inactive) | 50.4 µM (inactive) | 29.8 µM (inactive) | 57.5 | > 100 µM (inactive) | 56.8 µM (inactive) | 33.7 µM (inactive) | 43.7 µM (inactive) | 29 µM (inactive) | 26.4 µM (inactive) | 24.7 µM (inactive) | 42.1 µM (inactive) | > 100 µM (inactive) | 20.1 µM (inactive) | 28.4 µM (inactive) | 55.1 µM (inactive) | 67 µM (inactive) | – | –
2 | CC(CO)C1C[C@H](O)[C@@]2(C)CC(=O)C=C(CO)[C@@H]2C1 (some centres not stated) | > 100 µM (inactive) | > 100 µM (inactive) | > 100 µM (inactive) | > 100 µM (inactive) | > 100 | > 100 µM (inactive) | – | > 100 µM (inactive) | > 100 µM (inactive) | > 100 µM (inactive) | – | > 100 µM (inactive) | > 100 µM (inactive) | > 100 µM (inactive) | > 100 µM (inactive) | > 100 µM (inactive) | – | > 100 µM (inactive) | > 100 µM (inactive) | > 100 µM (inactive)
3 | CCN(CC)CCC(=O)c1ccc(Oc2ccccc2)cc1 | – | 18.7 µM (inactive) | 27.7 µM (inactive) | 17.9 µM (inactive) | 17.4 | 17.1 µM (inactive) | 35.3 µM (inactive) | 16.8 µM (inactive) | 16.5 µM (inactive) | 20 µM (inactive) | 15.1 µM (inactive) | > 100 µM (inactive) | 25.1 µM (inactive) | – | 19.7 µM (inactive) | 20.7 µM (inactive) | 39 µM (inactive) | 17.9 µM (inactive) | 18.9 µM (inactive) | 97.7 µM (inactive)
4 | O=C(NN=C1NCCN1)c1ccco1 | – | > 100 µM (inactive) | > 100 µM (inactive) | > 100 µM (inactive) | > 100 | > 100 µM (inactive) | > 100 µM (inactive) | > 100 µM (inactive) | > 100 µM (inactive) | > 100 µM (inactive) | > 100 µM (inactive) | 62.4 µM (inactive) | > 100 µM (inactive) | > 100 µM (inactive) | > 100 µM (inactive) | > 100 µM (inactive) | > 100 µM (inactive) | > 100 µM (inactive) | > 100 µM (inactive) | > 100 µM (inactive)
5 | Cc1cc(=O)oc2c(OS(C)(=O)=O)c(OS(C)(=O)=O)ccc12 | > 100 µM (inactive) | > 100 µM (inactive) | – | > 100 µM (inactive) | > 100 | > 100 µM (inactive) | > 100 µM (inactive) | > 100 µM (inactive) | > 100 µM (inactive) | > 100 µM (inactive) | > 100 µM (inactive) | > 100 µM (inactive) | > 100 µM (inactive) | > 100 µM (inactive) | > 100 µM (inactive) | > 100 µM (inactive) | > 100 µM (inactive) | > 100 µM (inactive) | – | > 100 µM (inactive)
6 | COC(=O)C1CC(C=[N+](C)C)=C(SC)N1C(=O)OCc1ccccc1 (configuration not stated) | > 100 µM (inactive) | > 100 µM (inactive) | > 100 µM (inactive) | > 100 µM (inactive) | > 100 | > 100 µM (inactive) | > 100 µM (inactive) | – | > 100 µM (inactive) | > 100 µM (inactive) | > 100 µM (inactive) | – | > 100 µM (inactive) | 30.8 µM (inactive) | > 100 µM (inactive) | > 100 µM (inactive) | > 100 µM (inactive) | > 100 µM (inactive) | > 100 µM (inactive) | > 100 µM (inactive)
7 | Cc1ccc([S+]([O-])CC(CF)OCn2cc(C)c(=O)[nH]c2=O)cc1 (configuration not stated) | – | 90.2 µM (inactive) | > 100 µM (inactive) | > 100 µM (inactive) | > 100 | > 100 µM (inactive) | – | > 100 µM (inactive) | > 100 µM (inactive) | > 100 µM (inactive) | > 100 µM (inactive) | > 100 µM (inactive) | > 100 µM (inactive) | > 100 µM (inactive) | > 100 µM (inactive) | > 100 µM (inactive) | > 100 µM (inactive) | > 100 µM (inactive) | – | > 100 µM (inactive)
8 | CC(C)=C[C@H]1CCC2(OCCO2)[C@]1(C)CO | > 100 µM (inactive) | > 100 µM (inactive) | – | > 100 µM (inactive) | > 100 | > 100 µM (inactive) | – | > 100 µM (inactive) | > 100 µM (inactive) | – | > 100 µM (inactive) | > 100 µM (inactive) | > 100 µM (inactive) | > 100 µM (inactive) | – | > 100 µM (inactive) | > 100 µM (inactive) | – | > 100 µM (inactive) | > 100 µM (inactive)
9 | COc1ccc(-n2c(C)nc3ccc(NC(=S)Nc4ccccc4)cc3c2=O)cc1 | > 100 µM (inactive) | 70 µM (inactive) | > 100 µM (inactive) | 39.2 µM (inactive) | 76.2 | > 100 µM (inactive) | 51.6 µM (inactive) | 43.7 µM (inactive) | – | 32.1 µM (inactive) | > 100 µM (inactive) | 43.2 µM (inactive) | 52.7 µM (inactive) | 12.4 µM (inactive) | 34.8 µM (inactive) | > 100 µM (inactive) | 35.7 µM (inactive) | > 100 µM (inactive) | 57.1 µM (inactive) | 56.1 µM (inactive)
10 | CN1CC=C(C#CC(C)(C)O)CC1 | – | > 37.5 µM (inactive) | > 37.5 µM (inactive) | > 37.5 µM (inactive) | > 37.5 | > 37.5 µM (inactive) | > 37.5 µM (inactive) | > 37.5 µM (inactive) | > 37.5 µM (inactive) | > 37.5 µM (inactive) | 30.8 µM (inactive) | > 37.5 µM (inactive) | > 37.5 µM (inactive) | > 37.5 µM (inactive) | > 37.5 µM (inactive) | > 37.5 µM (inactive) | > 37.5 µM (inactive) | > 37.5 µM (inactive) | > 37.5 µM (inactive) | > 37.5 µM (inactive)
11 | C=C1CCC2CC1C(C(=O)c1c[nH]c3ccccc13)=NC2(C)C (configuration not stated) | > 100 µM (inactive) | > 100 µM (inactive) | > 100 µM (inactive) | > 100 µM (inactive) | > 100 | > 100 µM (inactive) | 92.7 µM (inactive) | > 100 µM (inactive) | > 100 µM (inactive) | > 100 µM (inactive) | > 100 µM (inactive) | > 100 µM (inactive) | > 100 µM (inactive) | > 100 µM (inactive) | > 100 µM (inactive) | > 100 µM (inactive) | > 100 µM (inactive) | > 100 µM (inactive) | – | –
12 | COc1cc(COC(=O)N(CC(=O)O)c2ccccc2)c([N+](=O)[O-])cc1OC | 62.7 µM (inactive) | > 100 µM (inactive) | > 100 µM (inactive) | – | > 100 | > 100 µM (inactive) | > 100 µM (inactive) | – | > 100 µM (inactive) | > 100 µM (inactive) | > 100 µM (inactive) | > 100 µM (inactive) | > 100 µM (inactive) | > 100 µM (inactive) | > 100 µM (inactive) | > 100 µM (inactive) | > 100 µM (inactive) | > 100 µM (inactive) | > 100 µM (inactive) | –
13 | Cn1c(=O)oc2nc(-c3ccccc3)cc(C(F)(F)F)c21 | 39.2 µM (inactive) | > 100 µM (inactive) | > 100 µM (inactive) | 9.33 µM (inactive) | > 100 | > 100 µM (inactive) | – | – | 3.23 µM (inactive) | 14.3 µM (inactive) | – | > 100 µM (inactive) | > 100 µM (inactive) | > 100 µM (inactive) | 32.8 µM (inactive) | > 100 µM (inactive) | > 100 µM (inactive) | 95.3 µM (inactive) | – | > 100 µM (inactive)
14 | Cc1cc2c(cc1C(=O)c1ccc(N)cc1)OCO2 | – | 48.8 µM (inactive) | 55 µM (inactive) | 52 µM (inactive) | 30.4 | 33.5 µM (inactive) | 24.9 µM (inactive) | – | 12.4 µM (inactive) | 40.1 µM (inactive) | 33.8 µM (inactive) | – | > 100 µM (inactive) | 33.7 µM (inactive) | 0.347 µM (active) | 27 µM (inactive) | 43.6 µM (inactive) | 24.9 µM (inactive) | – | 23.9 µM (inactive)
15 | CC(C(O)c1ccccc1)N(C)/N=N/c1nc2c([nH]1)c(=O)n(C)c(=O)n2C (configuration not stated) | – | > 100 µM (inactive) | 99.3 µM (inactive) | > 100 µM (inactive) | 90.4 | 35.2 µM (inactive) | 91 µM (inactive) | – | 44.8 µM (inactive) | 38.3 µM (inactive) | > 100 µM (inactive) | > 100 µM (inactive) | 60.8 µM (inactive) | 25.2 µM (inactive) | > 100 µM (inactive) | > 100 µM (inactive) | 95.3 µM (inactive) | > 100 µM (inactive) | 42.9 µM (inactive) | > 100 µM (inactive)
16 | COc1cc2c(cc1O)CC[n+]1cc3c(OC)c(OC)ccc3cc1-2 | > 100 µM (inactive) | 47.3 µM (inactive) | > 100 µM (inactive) | > 100 µM (inactive) | > 100 | > 100 µM (inactive) | 75 µM (inactive) | > 100 µM (inactive) | > 100 µM (inactive) | > 100 µM (inactive) | 59.6 µM (inactive) | > 100 µM (inactive) | 62.5 µM (inactive) | > 100 µM (inactive) | 59.4 µM (inactive) | > 100 µM (inactive) | > 100 µM (inactive) | 35.6 µM (inactive) | – | > 100 µM (inactive)
